Experimental data as given in patent publication EP1976513B1 (priority 2006, dated 2007).
Like-named read-outs stand apart in the source and are kept apart here.

Columns and labels:
[1] = system: mice; test: Mouse tail suspension test; type: in vivo; conditions: PO, 30-60 minutes before the test, 5 minutes recording
[2] = system: mice; test: Mouse locomotor activity; type: in vivo; conditions: PO; note: unit not given here
Description: (§1) In order to ensure effects of the compounds on immobility time were not related to a general stimulant effect on baseline motor activity, locomotor activity was assessed using photocell monitored cages (Med-Associates Inc.). Each test chamber was equipped with infrared photocell beams to measure movement of the animals. Horizontal and vertical activity were measured
(§2) Rats or mice were pretreated with vehicle or test compounds and placed back in home cage, following which they will be individually placed in locomotor cages and activity was monitored in 5 minute intervals for up to 60 min.
(§3) Data were analyzed by one way analysis of variance (ANOVA) followed by post-hoc comparisons where appropriate. An effect was considered significant if p < 0.05. Data are represented as the mean and standard error to the mean (s.e.m).

[3] = system: Rats; test: Rat locomotor activity; type: in vivo; conditions: PO
Description: as §1, §2, §3

[4] = system: Rats; test: Rat forced swim test; type: in vivo; conditions: PO, 24 hours and 30-60 minutes before the 5 minute test
[5] = molecular target: T1, DA Transporter (DAT) Sites in Mouse Brain (Mus musculus, UniProt Q61327); test: Ex vivo [3H] WIN 35428 binding after oral dosing; design: species or system C57BL/6 mice; conditions: mice sacrificed 60 minutes after treatment, striatum
T1 construct: Striatum was used to determine occupancy of DA transporter sites; from tissue; host or cells: C57BL/6 mouse striatum homogenate
T1 sequence (Q61327 whole entry): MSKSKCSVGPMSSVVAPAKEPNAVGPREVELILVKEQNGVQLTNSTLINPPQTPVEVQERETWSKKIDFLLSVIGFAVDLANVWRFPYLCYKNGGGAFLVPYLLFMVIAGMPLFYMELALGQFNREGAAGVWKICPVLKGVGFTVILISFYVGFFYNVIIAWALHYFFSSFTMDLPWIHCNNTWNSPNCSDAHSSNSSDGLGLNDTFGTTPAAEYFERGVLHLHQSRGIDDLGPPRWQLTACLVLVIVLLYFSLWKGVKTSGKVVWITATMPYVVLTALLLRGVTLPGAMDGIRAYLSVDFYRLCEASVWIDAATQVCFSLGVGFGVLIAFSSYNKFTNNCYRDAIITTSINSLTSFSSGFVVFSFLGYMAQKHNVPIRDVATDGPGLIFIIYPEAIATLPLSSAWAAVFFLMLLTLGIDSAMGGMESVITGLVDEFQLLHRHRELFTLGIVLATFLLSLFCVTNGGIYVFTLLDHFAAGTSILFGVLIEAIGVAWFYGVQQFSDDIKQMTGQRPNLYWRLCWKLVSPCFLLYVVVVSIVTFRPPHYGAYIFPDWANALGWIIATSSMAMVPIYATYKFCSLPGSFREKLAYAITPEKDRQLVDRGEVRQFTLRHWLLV

[6] = molecular target: Norepinephrine Transporter (NET) Sites in Mouse Brain (Mus musculus, UniProt O55192); conditions: PO, mice sacrificed 60 minutes after treatment, cortex
Chain of Norepinephrine Transporter (NET) Sites in Mouse Brain (O55192 whole entry): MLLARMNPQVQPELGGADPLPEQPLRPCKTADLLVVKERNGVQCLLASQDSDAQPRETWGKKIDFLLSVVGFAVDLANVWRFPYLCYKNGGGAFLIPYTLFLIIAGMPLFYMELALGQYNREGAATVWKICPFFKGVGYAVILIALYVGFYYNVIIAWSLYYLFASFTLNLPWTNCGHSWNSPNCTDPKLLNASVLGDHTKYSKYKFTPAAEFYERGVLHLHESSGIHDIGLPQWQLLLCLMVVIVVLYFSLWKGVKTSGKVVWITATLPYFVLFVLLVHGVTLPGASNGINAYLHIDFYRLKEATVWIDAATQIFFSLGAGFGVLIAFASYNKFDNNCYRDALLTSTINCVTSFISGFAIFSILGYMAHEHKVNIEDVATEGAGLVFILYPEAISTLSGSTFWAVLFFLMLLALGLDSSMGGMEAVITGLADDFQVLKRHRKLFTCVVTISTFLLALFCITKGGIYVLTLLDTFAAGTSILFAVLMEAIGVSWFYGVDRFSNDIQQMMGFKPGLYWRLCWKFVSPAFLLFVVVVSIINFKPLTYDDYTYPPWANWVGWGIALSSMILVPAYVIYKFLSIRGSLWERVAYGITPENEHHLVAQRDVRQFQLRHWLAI

SMILES | Mouse Tail Suspension Mean Immobility Time ± S.E.M. ([1]; 3 mg/kg) | Mouse Tail Suspension Mean Immobility Time ± S.E.M. ([1]; 10 mg/kg) | Mouse Tail Suspension Mean Immobility Time ± S.E.M. ([1]; 30 mg/kg) | Mouse Locomotor Activity Total Distance Traveled ± S.E.M. ([2]; 3 mg/kg) | Mouse Locomotor Activity Total Distance Traveled ± S.E.M. ([2]; 10 mg/kg) | Mouse Locomotor Activity Total Distance Traveled ± S.E.M. ([2]; 30 mg/kg) | Rat Locomotor Activity Total Distance Traveled ± S.E.M. ([3]; 3 mg/kg) | Rat Locomotor Activity Total Distance Traveled ± S.E.M. ([3]; 10 mg/kg) | Rat Locomotor Activity Total Distance Traveled ± S.E.M. ([3]; 30 mg/kg) | Rat Forced Swim (Means ± S.E.M.) Climbing ([4]; 3 mg/kg) | Rat Forced Swim (Means ± S.E.M.) Immobility ([4]; 3 mg/kg) | Rat Forced Swim (Means ± S.E.M.) Swimming ([4]; 3 mg/kg) | Rat Forced Swim (Means ± S.E.M.) Climbing ([4]; 10 mg/kg) | Rat Forced Swim (Means ± S.E.M.) Immobility ([4]; 10 mg/kg) | Rat Forced Swim (Means ± S.E.M.) Swimming ([4]; 10 mg/kg) | Rat Forced Swim (Means ± S.E.M.) Climbing ([4]; 30 mg/kg) | Rat Forced Swim (Means ± S.E.M.) Immobility ([4]; 30 mg/kg) | Rat Forced Swim (Means ± S.E.M.) Swimming ([4]; 30 mg/kg) | further results
CN(C)CC1(c2ccc3ccccc3c2)CCCCC1O (single isomer, unassigned) [164 E2, trans-2-((dimethylamino)methyl)-2-(naphthalen-2-yl)cyclohexanol] | 181.8 ± 6.3 | 179.1 ± 4.5 | 141.8 ± 6.0 | 518.2 ± 106.1 | 464.5 ± 86.2 | 669.9 ± 75.6 |  |  |  |  |  |  |  |  |  |  |  |  | 
CNC(C)C1(c2ccc(Cl)c(Cl)c2)CCCCC1 (single isomer, unassigned) [44 E1, 1-(1-(3,4-dichlorophenyl)cyclohexyl)-N-methylethanamine] | 188.9 ± 7.3 | 174.5 ± 8.1 | 120.4 ± 9.0 | 576.5 ± 66.9 | 721.1 ± 36.5 | 402.3 ± 71.0 |  |  |  |  |  |  |  |  |  |  |  |  | 
CCC(N)C1(c2ccc(Cl)c(Cl)c2)CCCCC1 (single isomer, unassigned) [17 E1, 1-(1-(3,4-dichlorophenyl)cyclohexyl)propan-1-amine] | 184.7 ± 9.0 | 182.6 ± 4.1 | 150.9 ± 7.8 | 649.3 ± 78.4 | 478.3 ± 88.5 | 428.3 ± 120.6 |  |  |  |  |  |  |  |  |  |  |  |  | 
CN(C)CC1(c2ccc3ccccc3c2)CCCCC1O (single isomer, unassigned) [164 E1, trans-2-((dimethylamino)methyl)-2-(naphthalen-2-yl)cyclohexanol] | 183.8 ± 6.5 | 162.1 ± 4.6 | 155.3 ± 7.8 | 377.8 ± 67.6 | 210.3 ± 40.4 | 494.0 ± 84.9 |  |  |  |  |  |  |  |  |  |  |  |  | 
CN(C)CC1(c2ccc(Cl)c(Cl)c2)CCCCC1O (single isomer, unassigned) [153 E2, trans-2-(3,4-dichlorophenyl)-2-((dimethylamino)methyl)cyclohexanol] |  |  |  | 625.5 ± 88.8 | 519.5 ± 88.4 | 573.7 ± 63.6 | 1577.8 ± 80.1 | 1994.2 ± 263.9 | 2033.7 ± 215.4 | 8.8 ± 1.5 | 49.9 ± 1.7 | 1.9 ± 0.8 | 11.7 ± 1.8 | 44.0 ± 2.1 | 4.3 ± 1.1 | 22.2 ± 5.2 | 31.3 ± 6.7 | 4.6 ± 1.3 | 
CNCC1(c2ccc3ccccc3c2)CCCCC1 [Compound 93, N-methyl-1-(1-(naphthalen-2-yl)cyclohexyl)methanamine] | 203.5 ± 8.0 | 185.4 ± 7.9 | 162.0 ± 8.1 | 644.0 ± 55.7 | 606.9 ± 72.4 | 737.6 ± 89.5 | 1802.6 ± 150.6 | 1641.0 ± 144.5 | 2095.6 ± 147.2 | 9.0 ± 1.3 | 44.5 ± 2.5 | 6.5 ± 1.6 | 12.8 ± 2.2 | 41.4 ± 2.8 | 6.9 ± 1.3 | 22.2 ± 3.5 | 25.8 ± 5.4 | 12.0 ± 2.1 | 
CNC(C)C1(c2ccc(Cl)c(Cl)c2)CCCCC1.Cl (single isomer, unassigned) [48 E1, 1-(1-(3,4-dichlorophenyl)cyclohexyl)-N-methylethanamine hydrochloride] | 189.8 ± 7.2 | 174.1 ± 5.8 | 134.5 ± 9.6 | 622.5 ± 101.6 | 620.0 ± 79.4 | 468.6 ± 114.2 | 1869.9 ± 188.4 | 1825.3 ± 109.3 | 1840.6 ± 56.6 | 7.1 ± 0.6 | 49.6 ± 1.5 | 3.7 ± 1.0 | 17.9 ± 2.5 | 35.6 ± 3.5 | 6.5 ± 1.6 | 20.6 ± 2.9 | 26.9 ± 4.4 | 9.7 ± 1.7 | Mean Specific Binding (dpm) ± S.E.M., DAT ([5]; 1 mg/kg): 20656 ± 1531 dpm; Mean Specific Binding (dpm) ± S.E.M., DAT ([5]; 3 mg/kg): 18039 ± 1265 dpm; Mean Specific Binding (dpm) ± S.E.M., DAT ([5]; 10 mg/kg): 9792 ± 977 dpm; Mean Specific Binding (dpm) ± S.E.M., DAT ([5]; 30 mg/kg): 3173 ± 541 dpm; Mean Specific Binding (dpm) ± S.E.M., NET ([6]; 1 mg/kg): 2111 ± 119 dpm; Mean Specific Binding (dpm) ± S.E.M., NET ([6]; 3 mg/kg): 1911 ± 144 dpm; Mean Specific Binding (dpm) ± S.E.M., NET ([6]; 10 mg/kg): 954 ± 115 dpm; Mean Specific Binding (dpm) ± S.E.M., NET ([6]; 30 mg/kg): 346 ± 55 dpm
